Results: patent US11950594B2, “Methods and compositions for inhibiting formation of biofilms” (INSTITUTE OF MICROBIOLOGY, CHINESE ACADEMY OF SCIENCES, priority 2019, dated 2024)

Columns and labels:
Assay in all cases: QS gene expression, GFP promoter fusion
Type in all cases: cell-based, Pseudomonas aeruginosa
Details in all cases: FIGS. 8A to 8D
[1] = test system: LasR
Description: (§1) The QS system may regulate the formation of biofilm and the expression of multiple virulence factors. Whether the coumarin-chalcone compound C9 influences the QS regulation system was further studied. In the embodiment, a green fluorescent protein (GFP) was used as a reporter gene to examine the influence of the coumarin-chalcone compound C9 on the QS system. In this experiment, the transcription regulator genes (including LasR, RhIR, and PqsR) in three QS systems of Pseudomonas aeruginosa were used to study the gene expression of the QS system. By PCR expansion, promoter regions of the three genes were transcriptionally fused with a promoterless GFP fusion expression vector pProbe-AT, respectively, to construct transcription fusion plasmids that can indicate the expression level of LasR, RhIR, and PqsR genes, which were used as representatives of the expression of the three QS systems.
(§2) The overnight cultured bacterial solution was inoculated into the freshly prepared LB liquid medium to make its OD600 at 0.25, and then cultured for 2 h. Fluorescence was measured at 4 h, 8 h, 12 h, 16 h, 20 h, 24 h, respectively, and the measurement was performed in a 96-well plate. Bacterial growth was monitored by measuring OD600. The gene expression level was normalized by dividing the fluorescence value by the OD600 value of each sample.
(§3) The effects of the coumarin-chalcone compound C9 on the transcription of the three known QS regulators LasR, RhIR, and PqsR were examined by gfp fusion. FIGS. 8A to 8D are schematic diagrams illustrating the inhibition of QS systems in P. aeruginosa by compound C9. The transcription of QS-related genes (LasI, LasR, RhII, RhIR, PqsA, and PqsR) was indicated by the green fluorescent intensity of GFP-tagged promoter region through pPROBE-AT′ plasmid, the data of a blank group, a control group, and an experimental group treated with a coumarin-chalcone compound C9 were presented.

[2] = test system: PqsR
Description: as §1, §2, §3

[3] = test system: RhIR
Description: as §1, §2, §3

COc1cccc(/C=C/C(=O)c2cc3ccccc3oc2=O)c1 [Compound C9]
downregulated: transcription of LasR [1] | transcription of PqsR [2] | transcription of RhIR [3]
